According to patent US11903957B2, “Composition for preventing, ameliorating, or treating sleep disturbance comprising flavonoid compound as effective component” (KOREA INSTITUTE OF ORIENTAL MEDICINE, priority 2018, dated 2024):

Columns and labels:
[1] = tested on: C57BL/6 mouse induced to have sleep disturbance by caffeine; experiment: Open field test in animal model with sleep disturbance induced by caffeine; format: in vivo; conditions: 30 mg/kg saponarin or 200 mg/kg St. John's wort orally for 14 days, compared to control
Protocol: (§1) 30 mg/kg saponarin (Sigma-Aldrich, St. Louis, Mo., USA; dissolved in 0.5% CMC solution) and 200 mg/kg St. John's wort (dissolved in 0.5% CMC solution) were aliquoted to satisfy the administration amount and orally administered one hour before the caffeine administration. To the normal and stress control, 0.5% CMC solution was orally administered while 30 mg/kg saponarin was administered to the saponarin group and 200 mg/kg St. John's wort was administered to the positive control, in an amount of 0.1 ml for each.
Nine-week old male C57BL/6 mouse with bodyweight of 20 to 22 g was obtained from DBL Co., Ltd. (Eumseong-Gun, Chungcheong-Bukdo, Korea). The animal was supplied with a sufficient amount of water and solid feed (not added with any antibiotics, Samyang Animal Feed Co.) till the test day, and it was used for the experiment after acclimation for 1 week under an environment with temperature of 22±2° C., humidity of 55±15%, and 12-hour light and dark cycle. The experiment was carried out as illustrated in FIG. 1. Chemicals were orally administered every day for 14 days in total, and, according to intraperitoneal administration of 10 mg/kg caffeine 1 hour thereafter, sleep disturbance was induced.
Open field test is to determine sleep disturbance and amelioration level obtained by pharmaceutical in which the determination is made by measuring the voluntary movement of a mouse after entering an unfamiliar field for the first time. A mouse was placed at the center (30×30×30 cm) of a white box, which is made of white acryl, and then travel distance (total distance moved), mobility time, mobility frequency and immobility time for 1 hour were analyzed by using Video tracking software (Ethovision XT, Noldus, Nederland).
The saponarin administration group was orally administered with 30 mg/kg saponarin. After one hour, the animal was intraperitoneally administered with 10 mg/kg caffeine to induce sleep disturbance caused by caffeine for 14 days. Then, travel distance of the mouse was measured.
Then, the mobility time and mobility frequency were measured.
Thereafter, the immobility time of mouse was measured.

neuropeptide Y = experiment: mRNA expression level of neuropeptide Y in cerebral cortex (real-time PCR), caffeine-induced sleep disturbance; format: in vivo, mouse; conditions: 30 mg/kg saponarin or 200 mg/kg St. John's wort orally for 14 days, caffeine i.p.; cortex obtained on Day 15; compared to control; FIG. 5A
Protocol: as §1
(§2) Nine-week old male C57BL/6 mouse with bodyweight of 20 to 22 g was obtained from DBL Co., Ltd. (Eumseong-Gun, Chungcheong-Bukdo, Korea). […]
(§3) Expression pattern of the gene in cerebral cortex, which has been removed from each test animal upon the completion of the test, was determined by real-time PCR. The cerebral cortex tissues of a mouse were treated with RNAzolB (Tel-Test) to extract RNA, and then analyzed by cDNA and real-time PCR instrument using One-step SYBR Green PCR kit (AB science).
(§4) The cerebral cortex tissues were added with 500 μl of RNAzol(B), disrupted using a homogenizer, and then added with 50 μl of chloroform (CHCl3) followed by mixing again for 15 seconds. […] Real time quantitative PCR was carried out by using Applied Biosystems 7500 Real-Time PCR system (Applied Biosystems, USA). […]

cholecystokinin = experiment: mRNA expression level of cholecystokinin in cerebral cortex (real-time PCR), caffeine-induced sleep disturbance; format: in vivo, mouse; conditions: 30 mg/kg saponarin or 200 mg/kg St. John's wort orally for 14 days, caffeine i.p.; cortex obtained on Day 15; compared to control; FIG. 5B
Protocol: as §1, §2, §3, §4

GABA A α1 receptor = experiment: mRNA expression level of GABA A α1 receptor in cerebral cortex (real-time PCR), caffeine-induced sleep disturbance; format: in vivo, mouse; conditions: 30 mg/kg saponarin or 200 mg/kg St. John's wort orally for 14 days, caffeine i.p.; cortex obtained on Day 15; compared to control; FIG. 6, p<0.01
Protocol: as §1, §2, §3, §4

[2] = tested on: SD rat induced to have sleep disturbance by stress; experiment: Electroencephalography (EEG) measurement in animal model with sleep disturbance induced by stress; format: in vivo; conditions: foot pad electric shock stress for 5 days, compared to stress control
Protocol: The saponarin administration group was administered orally with 0.1 ml of saponarin, 30 minutes before the stress application. The normal and stress control were administered orally with 0.1 ml of a solvent. Operation was carried out for four divided groups, i.e., normal, control, saponarin, and positive control (St. John's wort), and total 24 animals were used, i.e., 6 animals per group.
A male rat (7 week old) was suitably fed with solid feed and water till the test day. After the acclimation for 1 week in an environment in which temperature of 23 to 25° C., humidity of 45 to 60%, and illuminance of 200 to 300 LUX, and 12 hour light and dark cycle are maintained, the animals were subjected to the test. For the operation, a 7-week old Sprague Dawley (SD) rat was anesthetized by intraperitoneal injection of 40 mg/kg pentobarbital, and then placed and fixed on a stereotaxic instrument (Stoelting CO, USA) such that the bregma and lambda are in horizontal alignment. After suppressing subgaleal bleeding, hairs were shaved and the skull was exposed by excising the scalp and removing the periosteum. Based on the anatomy drawing by Paxinos & Watson, a hole was created by using drill, an electrode was inserted to reach the dura mater, and an electrode composed of two silver wires was inserted to neck muscle to record an electromyogram. On top of the cranial bone of cerebellum, pins attached with an electrode for recording an electroencephalogram and an electrode for recording an electromyogram were placed and fixed on top of the cranial bone by applying dental cement. […]
After the stress for 5 days, the rat was orally administered with each pharmaceutical, and, after 30 minutes, EEG recording was carried out in a light-blocking acrylic cylinder (PM 8:00 to AM 8:00). The wake time and sleep (REM and NonREM) time were recorded by using SleepSign Ver. […]
After 30 minutes, foot pad electric shock was applied to the SD rats to induce for 5 days sleep disturbance caused by stress. Wake time was then measured for each rat.

Q: With `O=c1cc(-c2ccc(O)cc2)oc2cc(O[C@@H]3O[C@H](CO)[C@@H](O)[C@H](O)[C@H]3O)c([C@@H]3O[C@H](CO)[C@@H](O)[C@H](O)[C@H]3O)c(O)c12` [saponarin, (1S)-1,5-anhydro-1-[7-(beta-D-glucopyranosyloxy)-5-hydroxy-2-(4-hydroxyphenyl)-4-oxo-4H-chromen-6-yl]-D-glucitol] as the compound, how does the “travel distance (total distance moved), open field test” value ([1]; 10 mg/kg caffeine i.p. 1 hour later, FIG. 2, p<0.05) read?
A: The value was “decreased in significant sense”.

Q: What about the “mobility time, open field test” value ([1]; 10 mg/kg caffeine i.p., FIG. 3A, p<0.01) of the same compound?
A: The value was “decreased in significant sense”.

Q: What about the “mobility frequency, open field test” value ([1]; 10 mg/kg caffeine i.p., FIG. 3B, p<0.01) of the same compound?
A: The value was “decreased in significant sense”.

Q: What about the “immobility time, open field test” value ([1]; 10 mg/kg caffeine i.p., FIG. 4) of the same compound?
A: Its value is “increased”.

Q: What about the “mRNA expression of neuropeptide Y in cerebral cortex” value (neuropeptide Y) of the same compound?
A: Its value is “show increased expression or tend to show increased expression in statistically significant sense”.

Q: And the “mRNA expression of cholecystokinin in cerebral cortex” value (cholecystokinin)?
A: Its value is “show increased expression or tend to show increased expression in statistically significant sense”.

Q: And the “mRNA expression of GABA A α1 receptor in cerebral cortex” value (GABA A α1 receptor)?
A: The value was “increased mRNA expression of GABA A α1 receptor in significant sense”.

Q: And the “wake time during sleep by EEG” value ([2]; 30 mg/kg saponarin or 200 mg/kg St. John's wort orally, FIG. 8, p<0.05)?
A: The value was “decreased in significant sense”.

Q: And the “REM sleep time by EEG” value ([2]; 30 mg/kg saponarin orally, FIG. 9)?
A: Its value is “tends to increase”.

Q: What about the “NonREM sleep time by EEG” value ([2]; 30 mg/kg saponarin orally, FIG. 10) of the same compound?
A: Its value is “tends to increase”.
